Reference: patent publication US12390437B2, “Itaconic acid derivatives and uses thereof intreating an inflammatory disease or a disease associated with an undesirable immune response” (Sitryx Therapeutics Limited, priority 2019, dated 2025)

Columns and labels:
[1] = tested on: IL-6 cytokine output from THP-1s; experiment: THP-1 AlphaLISA IL-6 cytokine assay; assay type: cell-based, human; settings: Homo sapiens; PMA-differentiated THP-1 cells, LPS 24 hr then Nigericin 1 hour
Method in brief: (§1)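 PMA-differentiated THP-1 cells (72 h) were pre-incubated 30 min with compound, then LPS-primed 24 h and pulsed with nigericin for 1 h at 37 °C. Supernatant cytokine was quantified by AlphaLISA; % inhibition was normalised to +/−LPS plate controls and IC50 taken from concentration-response curves.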

[2] = tested on: IL-1β cytokine output from THP-1s; experiment: THP-1 AlphaLISA IL-1β cytokine assay; assay type: cell-based, human; settings: Homo sapiens, THP-1, PMA-differentiated THP-1 cells, LPS 24 hr then Nigericin 1 hour; read-out: IL-1β (IC50)
Method in brief: as §1

[3] = Mouse pharmacokinetic study, oral administration; assay type: in vivo; settings: male, C57BL/6, mouse, plasma, po, 100 mg/kg, plasma, male C57BL/6 mice, oral gavage 100 mg/kg; for concentration at 0.25 h: read-out: Parent compound concentrations following oral administration, Time 0.25 h; for concentration at 0.5 h: read-out: Parent compound concentrations following oral administration, Time 0.5 h; for concentration at 1 h: read-out: Parent compound concentrations following oral administration, Time 1 h; for concentration at 2 h: read-out: Parent compound concentrations following oral administration, Time 2 h; for concentration at 4 h: read-out: Parent compound concentrations following oral administration, Time 4 h; for concentration at 8 h: read-out: Parent compound concentrations following oral administration, Time 8 h; for concentration at 24 h: read-out: Parent compound concentrations following oral administration, Time 24 h; for concentration at 0.083 h: read-out: Parent compound concentrations following oral administration, Time 0.083 h; for concentration at 6 h: read-out: Parent compound concentrations following oral administration, Time 6 h
Method in brief: (§2)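 Plasma levels were quantified by LC-MS/MS after dosing male C57BL/6 mice either intravenously (10 mg/kg, sampled to 8 hours) or orally by gavage (100 mg/kg, sampled to 24 hours), with three animals per time point.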

[4] = Mouse pharmacokinetic study, intravenous dosing; assay type: in vivo; settings: male, C57BL/6, mouse, iv, plasma, 10 mg/kg i.v., read-out: Parent compound concentration following intravenous administration
Method in brief: as §2

IC50 [1] [µM]	IC50 [2] [µM]	concentration at 0.25 h [3] [ng/mL]	concentration at 0.5 h [3] [ng/mL]	concentration at 1 h [3] [ng/mL]	concentration at 2 h [3] [ng/mL]	concentration at 4 h [3] [ng/mL]	concentration at 8 h [3] [ng/mL]	concentration at 24 h [3] [ng/mL]	concentration at 0.083 h [3] [ng/mL]	concentration at 6 h [3] [ng/mL]	concentration at 0.05 h [4] [ng/mL]	concentration at 0.133 h [4] [ng/mL]	concentration at 0.25 h [4] [ng/mL]	concentration at 0.5 h [4] [ng/mL]	concentration at 1 h [4] [ng/mL]	concentration at 2 h [4] [ng/mL]	concentration at 4 h [4] [ng/mL]	concentration at 6 h [4] [ng/mL]	concentration at 8 h [4] [ng/mL]	SMILES
3.6	9.3	–	–	–	–	–	–	–	–	–	–	–	–	–	–	–	–	–	–	C=C(CC(=O)OCCCCCCCC)C(=O)OC1COC1 [Example 4, 4-octyl 1-(oxetan-3-yl) 2-methylenesuccinate]
5.3	9.6	850	1150	715	173	67	< 1.5	< 1.5	–	–	–	–	–	–	–	–	–	–	–	C=C(CC(=O)OCCCCCCCC)C(=O)OCCC(=O)O [Example 80, 3-((2-methylene-4-(octyloxy)-4-oxobutanoyl)oxy)propanoic Acid]
15.7	100	41	943	686	149	19	< 3	< 3	–	–	–	–	–	–	–	–	–	–	–	C=C(CC(=O)OCCCOc1ccccc1)C(=O)OCCC(=O)O [Example 86, 3-((2-methylene-4-oxo-4-(3-phenoxypropoxy)butanoyl)oxy)propanoic acid]
100	28.1	35300	15900	8520	1460	198	31	< 14	–	–	–	–	–	–	–	–	–	–	–	C=C(CC(=O)OC1CCCCC1)C(=O)OCCC(=O)O [Example 87, 3-((4-(cyclohexyloxy)-2-methylene-4-oxobutanoyl)oxy)propanoic acid]
33.8	48.1	8860	6240	1920	450	33	19	13	–	–	–	–	–	–	–	–	–	–	–	C=C(CC(=O)OC1CCCCC1)C(=O)OCC(=O)O [Example 91, 2-((4-(cyclohexyloxy)-2-methylene-4-oxobutanoyl)oxy)acetic acid]
–	14.7	38400	40600	10100	4420	4400	25	8.1	55000	441	37200	21900	8930	1660	476	66	12	< 4	< 4	C=C(CC(=O)O[C@@H](CC)CCCCC)C(=O)OCC(=O)O [Example 170, (S)-2-(2-methylene-4-(octan-3-yloxy)-4-oxobutanoyloxy)acetic acid]
–	6.1	46800	27900	13500	5390	1370	417	5.9	65900	1280	40800	17900	6740	2890	642	88	20	6	< 4	C=C(CC(=O)O[C@@H](CCCCCC)C(F)(F)F)C(=O)OCC(=O)O [Example 182, (S)-2-((2-methylene-4-oxo-4-((1,1,1-trifluorooctan-2-yl)oxy)butanoyl)oxy)acetic acid]

Further lines, the molecule ahead of its results:

SMILES	IC50 [1] [µM]	IC50 [2] [µM]	concentration at 0.25 h [3] [ng/mL]	concentration at 0.5 h [3] [ng/mL]	concentration at 1 h [3] [ng/mL]	concentration at 2 h [3] [ng/mL]	concentration at 4 h [3] [ng/mL]	concentration at 8 h [3] [ng/mL]	concentration at 24 h [3] [ng/mL]	concentration at 0.083 h [3] [ng/mL]	concentration at 6 h [3] [ng/mL]	concentration at 0.05 h [4] [ng/mL]	concentration at 0.133 h [4] [ng/mL]	concentration at 0.25 h [4] [ng/mL]	concentration at 0.5 h [4] [ng/mL]	concentration at 1 h [4] [ng/mL]	concentration at 2 h [4] [ng/mL]	concentration at 4 h [4] [ng/mL]	concentration at 6 h [4] [ng/mL]	concentration at 8 h [4] [ng/mL]
C=C(CC(=O)OCCCCCCCC)C(=O)OCC(=O)O [Example 49, 2-((2-methylene-4-(octyloxy)-4-oxobutanoyl)oxy)acetic acid]	5.5	7.2	536	843	344	111	12	4.5	< 1.5	–	–	–	–	–	–	–	–	–	–	–
C=C(CC(=O)OC1CCCCCCC1)C(=O)OCCC(=O)O [Example 82, 3-((4-(cyclooctyloxy)-2-methylene-4-oxobutanoyl)oxy)propanoic acid]	18.9	25.7	18000	6450	3400	1040	568	86	< 0.8	27500	112	17600	8350	2780	752	69	2.2	1.4	1.6	< 0.8
C=C(CC(=O)O[C@H](CC)CCCCC)C(=O)OCC(=O)O [Example 178, (R)-2-(2-methylene-4-(octan-3-yloxy)-4-oxobutanoyloxy)acetic acid]	–	24.6	27100	27900	11000	3660	1460	639	< 4	67100	2240	33400	15500	5680	2850	594	61	8.2	< 4	< 4
C=C(CC(=O)OC(C)(C)CCCCCC)C(=O)OCC(=O)O [Example 192, 2-((2-methylene-4-((2-methyloctan-2-yl)oxy)-4-oxobutanoyl)oxy)acetic acid]	–	10.6	60700	37900	25200	8740	5440	41	6.6	47000	79	36600	21400	11300	2910	400	86	26	< 4	< 4
C=C(CC(=O)OC(C)(C)CCCCC)C(=O)OCC(=O)O [Example 193, 2-((2-methylene-4-((2-methylheptan-2-yl)oxy)-4-oxobutanoyl)oxy)acetic acid]	–	17.6	45600	31500	8930	2120	920	19	5.6	52900	55	28800	10700	4040	1450	134	16	4.1	< 4	< 4
